# Target: KRas G12C (Homo sapiens, UniProt P01116, G12C)
# Assay: Cellular inhibition of KRas G12C measured by Phospho-ERK in NCI-H358 cells
# Format: cell-based
# Settings: pERK(Thr202/Tyr204) normalized with GAPDH, NCI-H358 cells, 3 hours; read-out: IC50
# Outline: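 NCI-H358 cells were allowed to attach for 8-12 hours, then exposed to compounds for 3 hours at 0.5% DMSO final. After formaldehyde fixation and methanol permeabilization, phospho-ERK (Thr202/Tyr204) was detected by in-cell immunofluorescence and normalized to GAPDH; IC50 came from a 4-parameter fit of percent-of-DMSO values.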
# KRas G12C, sequence (P01116 1-188 isoform P01116-2 G12C): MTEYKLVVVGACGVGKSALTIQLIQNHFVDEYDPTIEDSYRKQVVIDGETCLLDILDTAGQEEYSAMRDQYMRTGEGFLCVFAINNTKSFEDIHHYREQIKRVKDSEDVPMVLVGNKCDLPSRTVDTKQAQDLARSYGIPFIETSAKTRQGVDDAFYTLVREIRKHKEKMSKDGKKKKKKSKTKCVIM
row,SMILES,IC50 [nM]
1,"C=CC(=O)N1CCN(c2nc(OCCCN3CCN(C(C)=O)CC3)nc3c2CCN(c2cc(O)cc4ccccc24)C3)CC1 [Example 135, 1-[4-[2-[3-(4-acetylpiperazin-1-yl)propoxy]-7-(3-hydroxy-1-naphthyl)-6,8-dihydro-5H-pyrido[3,4-d]pyrimidin-4-yl]piperazin-1-yl]prop-2-en-1-one]",0.1 to 1000
2,"C=CC(=O)N1CCN(c2nc(OC[C@@H]3CCCN3C)nc3c2CCN(c2ccccc2C#N)C3)C[C@@H]1CC#N [Example 325, 2-[4-[(3S)-3-(cyanomethyl)-4-prop-2-enoyl-piperazin-1-yl]-2-[[(2S)-1-methylpyrrolidin-2-yl]methoxy]-6,8-dihydro-5H-pyrido[3,4-d]pyrimidin-7-yl]benzonitrile]",> 1000
3,"C=CC(=O)N1CCN(c2nc(OC[C@@H]3CCCN3C)nc3c2CCN(c2cccc4ncccc24)C3)CC1CC#N (stereo partly drawn) [Example 294, 2-[4-[2-[[(2S)-1-methylpyrrolidin-2-yl]methoxy]-7-(5-quinolyl)-6,8-dihydro-5H-pyrido[3,4-d]pyrimidin-4-yl]-1-prop-2-enoyl-piperazin-2-yl]acetonitrile]",> 1000
4,"C=CC(=O)N1CCN(c2nc(OC[C@@H]3CCCN3C)nc3c2CCN(c2nccc4ccccc24)C3)CC1CC#N (stereo partly drawn) [Example 289, 2-[4-[7-(1-isoquinolyl)-2-[[(2S)-1-methylpyrrolidin-2-yl]methoxy]-6,8-dihydro-5H-pyrido[3,4-d]pyrimidin-4-yl]-1-prop-2-enoyl-piperazin-2-yl]acetonitrile]",> 1000
5,"C=CC(=O)N1CCN(c2nc(O[C@@H]3CCCN(C)C3)nc3c2CCN(c2cc(O)cc4ccccc24)C3)CC1 [Example 67, (R)-1-(4-(7-(3-hydroxynaphthalen-1-yl)-2-((1-methylpiperidin-3-yl)oxy)-5,6,7,8-tetrahydropyrido[3,4-d]pyrimidin-4-yl)piperazin-1-yl)prop-2-en-1-one]",0.1 to 1000
6,"C=CC(=O)N1CCN(c2nc(OCC(O)CN3CCOCC3)nc3c2CCN(c2cc(O)cc4ccccc24)C3)CC1 (centres unmarked) [Example 123, 1-(4-(2-(2-hydroxy-3-morpholinopropoxy)-7-(3-hydroxynaphthalen-1-yl)-5,6,7,8-tetrahydropyrido[3,4-d]pyrimidin-4-yl)piperazin-1-yl)prop-2-en-1-one]",> 1000
7,"C=CC(=O)N1CCN(c2ncnc3c2CC(=O)N(c2cc(O)cc4ccccc24)C3)CC1 [Example 113, 4-(4-acryloylpiperazin-1-yl)-7-(3-hydroxynaphthalen-1-yl)-7,8-dihydropyrido[3,4-d]pyrimidin-6(5H)-one]",> 1000
8,"C=CC(=O)N1CCN(c2nc(OCCCN3C[C@H]4C[C@@H]3CO4)nc3c2CCN(c2cc(O)cc4ccccc24)C3)CC1 [Example 185, 1-(4-(2-(3-((1R,4R)-2-oxa-5-azabicyclo[2.2.1]heptan-5-yl)propoxy)-7-(3-hydroxynaphthalen-1-yl)-5,6,7,8-tetrahydropyrido[3,4-d]pyrimidin-4-yl)piperazin-1-yl)prop-2-en-1-one]",0.1 to 1000
9,"C=CC(=O)N1CCN(c2nc(OCC3CN(C)CCN3C)nc3c2CCN(c2cc(O)cc4ccccc24)C3)CC1 (centres unmarked) [Example 219, 1-(4-(2-((1,4-dimethylpiperazin-2-yl)methoxy)-7-(3-hydroxynaphthalen-1-yl)-5,6,7,8-tetrahydropyrido[3,4-d]pyrimidin-4-yl)piperazin-1-yl)prop-2-en-1-one]",> 1000
10,"C=CC(=O)N1CCN(c2nc(OCCCN3CCCCC3)nc3c2CCN(c2cc(O)cc4ccccc24)C3)CC1 [Example 38, 1-(4-(7-(3-hydroxynaphthalen-1-yl)-2-(3-(piperidin-1-yl)propoxy)-5,6,7,8-tetrahydropyrido[3,4-d]pyrimidin-4-yl)piperazin-1-yl)prop-2-en-1-one]",0.1 to 1000
11,"C=CC(=O)N1CCN(c2nc(OCCN(C)C)nc3c2CCN(c2cc(O)cc4ccccc24)C3)C(CO)C1 (centres unmarked) [Example 53, 1-(4-(2-(2-(dimethylamino)ethoxy)-7-(3-hydroxynaphthalen-1-yl)-5,6,7,8-tetrahydropyrido[3,4-d]pyrimidin-4-yl)-3-(hydroxymethyl)piperazin-1-yl)prop-2-en-1-one]",> 1000
12,"C=CC(=O)N1CCN(c2nc(OCCN(C)C)nc3c2CCN(c2ccccc2C(F)(F)F)C3)CC1CC#N (centres unmarked) [Example 279, 2-(1-acryloyl-4-(2-(2-(dimethylamino)ethoxy)-7-(2-(trifluoromethyl)phenyl)-5,6,7,8-tetrahydropyrido[3,4-d]pyrimidin-4-yl)piperazin-2-yl)acetonitrile]",0.1 to 1000
13,"C=CC(=O)N1CCN(c2nc(OC[C@@H]3CCCN3C)nc3c2CCN(c2c(C(F)(F)F)ccc4[nH]ncc24)C3)CC1 [Example 156, (S)-1-(4-(2-((1-methylpyrrolidin-2-yl)methoxy)-7-(5-(trifluoromethyl)-1H-indazol-4-yl)-5,6,7,8-tetrahydropyrido[3,4-d]pyrimidin-4-yl)piperazin-1-yl)prop-2-en-1-one]",0.1 to 1000
14,"C=CC(=O)N1CCN(c2nc(OCCN3CCCC3)nc3c2CCN(c2cc(O)cc4ccccc24)C3)CC1 [Example 85, 1-(4-(7-(3-hydroxynaphthalen-1-yl)-2-(2-(pyrrolidin-1-yl)ethoxy)-5,6,7,8-tetrahydropyrido[3,4-d]pyrimidin-4-yl)piperazin-1-yl)prop-2-en-1-one]",> 1000
15,C=CC(=O)N1CCN(c2nc(OC[C@@H]3CCCN3C)nc3c2CCN(c2cccc(F)c2C(F)(F)F)C3)C[C@@H]1CC#N [Example 328],0.1 to 1000

# The remaining lines, values ahead:
row,IC50 [nM],SMILES
1,0.1 to 1000,"Cc1cc2[nH]ncc2c(N2CCc3c(nc(OC[C@@H]4CC(F)(F)CN4C)nc3N3CCN(C(=O)/C=C/CF)[C@@H](CC#N)C3)C2)c1C [Example 614, 2-((S)-4-(2-(((S)-4,4-difluoro-1-methylpyrrolidin-2-yl)methoxy)-7-(5,6-dimethyl-1H-indazol-4-yl)-5,6,7,8-tetrahydropyrido[3,4-d]pyrimidin-4-yl)-1-((E)-4-fluorobut-2-enoyl)piperazin-2-yl)acetonitrile]"
2,0.1 to 1000,"CC#CC(=O)N1CCN(c2nc(OC[C@@H]3CCCN3C)nc3c2CCN(c2cccc4cccc(Cl)c24)C3)C[C@@H]1CC#N [Example 391, 2-((S)-1-(but-2-ynoyl)-4-(7-(8-chloronaphthalen-1-yl)-2-(((S)-1-methylpyrrolidin-2-yl)methoxy)-5,6,7,8-tetrahydropyrido[3,4-d]pyrimidin-4-yl)piperazin-2-yl)acetonitrile]"
3,0.1 to 1000,"C=CC(=O)N1CCN(c2nc(OC[C@@H]3CCCN3C)nc3c2CCN(c2cncc(F)c2C(F)(F)F)C3)C[C@@H]1CC#N [Example 383, 2-((S)-1-acryloyl-4-(7-(5-fluoro-4-(trifluoromethyl)pyridin-3-yl)-2-(((S)-1-methylpyrrolidin-2-yl)methoxy)-5,6,7,8-tetrahydropyrido[3,4-d]pyrimidin-4-yl)piperazin-2-yl)acetonitrile]"
4,0.1 to 1000,"C=CC(=O)N1CCN(c2nc(OCCCN3C[C@@H]4C[C@H]3CO4)nc3c2CCN(c2cccc4cccc(Cl)c24)C3)C[C@@H]1CC#N [Example 365, 2-[(2S)-4-[7-(8-chloro-1-naphthyl)-2-[3-[(1S,4S)-2-oxa-5-azabicyclo[2.2.1]heptan-5-yl]propoxy]-6,8-dihydro-5H-pyrido[3,4-d]pyrimidin-4-yl]-1-prop-2-enoyl-piperazin-2-yl]acetonitrile]"
5,0.1 to 1000,"CCN1CCC[C@H]1COc1nc2c(c(N3CCN(C(=O)/C=C/CN(C)C)[C@@H](CC#N)C3)n1)CCN(c1cccc3ccccc13)C2 [Example 401, 2-((S)-1-((E)-4-(dimethylamino)but-2-enoyl)-4-(2-(((S)-1-ethylpyrrolidin-2-yl)methoxy)-7-(naphthalen-1-yl)-5,6,7,8-tetrahydropyrido[3,4-d]pyrimidin-4-yl)piperazin-2-yl)acetonitrile]"
6,> 1000,"CN(C)C/C=C(/F)C(=O)N1CCN(c2nc(OC[C@@H]3CCCN3C)nc3c2CCN(c2cccc4cccc(Cl)c24)C3)C[C@@H]1CC#N [Example 503, 2-[(2S)-4-[7-(8-chloro-1-naphthyl)-2-[[(2S)-1-methylpyrrolidin-2-yl]methoxy]-6,8-dihydro-5H-pyrido[3,4-d]pyrimidin-4-yl]-1-[(E)-4-(dimethylamino)-2-fluoro-but-2-enoyl]piperazin-2-yl]acetonitrile]"
7,0.1 to 1000,"C=CC(=O)N1CCN(c2nc(OC[C@@H]3CCCN3CC3CC3)nc3c2CCN(c2cccc4ccccc24)C3)CC1CC#N (stereo partly drawn) [Example 396, 2-(1-acryloyl-4-(2-(((S)-1-(cyclopropylmethyl)pyrrolidin-2-yl)methoxy)-7-(naphthalen-1-yl)-5,6,7,8-tetrahydropyrido[3,4-d]pyrimidin-4-yl)piperazin-2-yl)acetonitrile]"
8,> 1000,C=C(F)C(=O)N1CCN(c2nc(OC[C@@H]3CCCN3C)nc3c2CCN(c2c(C)ncc4ccccc24)C3)C[C@@H]1CC#N [Example 617]
9,0.1 to 1000,"C=CC(=O)N1CCN(c2nc(OCCN3CCCCC3)nc3c2CCN(c2cccc4cccc(Cl)c24)C3)C[C@@H]1CC#N [Example 362, 2-[(2S)-4-[7-(8-chloro-1-naphthyl)-2-[2-(1-piperidyl)ethoxy]-6,8-dihydro-5H-pyrido[3,4-d]pyrimidin-4-yl]-1-prop-2-enoyl-piperazin-2-yl]acetonitrile]"
10,0.1 to 1000,"CN1CC[C@@H](COc2nc3c(c(N4CCN(C(=O)/C=C/CF)[C@@H](CC#N)C4)n2)CCN(c2cccc4cccc(Cl)c24)C3)C1 [Example 584, 2-[(2S)-4-[7-(8-chloro-1-naphthyl)-2-[[(3R)-1-methylpyrrolidin-3-yl]methoxy]-6,8-dihydro-5H-pyrido[3,4-d]pyrimidin-4-yl]-1-[(E)-4-fluorobut-2-enoyl]piperazin-2-yl]acetonitrile]"
11,0.1 to 1000,"C=CC(=O)N1CCN(c2nc(OC[C@@H]3CCCN3CCO)nc3c2CCN(c2cccc4ccccc24)C3)C[C@@H]1CC#N [Example 341, 2-((S)-1-acryloyl-4-(2-(((S)-1-(2-hydroxyethyl)pyrrolidin-2-yl)methoxy)-7-(naphthalen-1-yl)-5,6,7,8-tetrahydropyrido[3,4-d]pyrimidin-4-yl)piperazin-2-yl)acetonitrile]"

# Reference: patent US10689377B2 (Mirati Therapeutics, Inc., priority 2017, dated 2020)
